Measured values: article PMC10784468 (Nature Communications, 2024)
One block for each substance: values may come before it.

How the values were obtained:
[1] = Critical aggregation concentration (pyrene probe, I338/I335); assay type: physicochemical; details: for I338/I335 (pyrene): pyrene 6 μM, emission 393 nm
Description: The CACs were determined using pyrene as a fluorescent probe. In brief, 50 μL of pyrene solution in acetone (480 μM) was added to a 5 mL centrifuge tube, followed by adding a series of peptide-porphyrin conjugate solutions with different concentrations, and the tube was kept overnight to evaporate the acetone completely, the concentration of pyrene being fixed at 6 μM at last. The excitation spectra of the solutions were recorded with the emission wavelength fixing at 393 nm, and the intensity ratio (I338/I335) was calculated as a function of the concentration. The CAC was determined based on the intersection point at low concentration on the plot.

Particle size by DLS = assay type: physicochemical; details: 40 μM, PBS 0.01 M, pH 6.5, with GPX4; Supplementary Fig. 18
Description: Nano-ZS 3600 (Malvern Instruments, UK) was used to measure the size distribution of the peptide-porphyrin conjugate solutions. The conjugate solutions (40 μM) were incubated at pH 7.4 or pH 6.5 before measurements. An average value was determined by three repeated measurements at 25 °C for each sample. Besides, transmission electron microscopy (TEM, Tecnai G2 20 S-TWIN) was conducted to observe the morphology and diameters of conjugates in aqueous solution, The conjugates (50 μL, 40 μM) were kept in PB solution at pH 7.4 or pH 6.5, which were dropped on copper meshes. After 5 min, unnecessary liquid was removed and the uranyl acetate solution (10 μL) was dropped on this copper mesh to stain the samples for 10 min. Finally, the copper meshes were washed with deionized water, and dried at room temperature for observation.

GPX4 protein = assay: Microscale Thermophoresis (MST) ligand binding; details: for Fnorm (‰), MST original data: labelled GPX4
Description: Initially, GPX4 was labeled using Protein Labeling Kit RED-NHS according to the manufacturer’s instructions to investigate the binding affinity of Gi-F-CAA, Gi-F and NGi-F-CAA with GPX4 protein. Afterward, the labelled GPX4 protein was incubated with series of Gi-F-CAA, Gi-F and NGi-F-CAA concentration gradients. Finally, the prepared samples were loaded into silica capillaries and measured with Monolish NT.115. Apparent Kd represented the affinity of assemblies rather than a single molecule. Bovine serum albumin (BSA) was used as control for calculating the apparent binding affinity between Gi-F (nanoparticle) to GPX4 protein. Briefly, as the diameter of nanoparticle is proportional to the molecular weight, according to the reported bovine serum albumin (BSA) protein size and molecular weight (7.2 nm, 66.43 KDa), the molecular weight of Gi-F nanoparticle with an average 78 nm size can be calculated to be […]. The monomer amount Gi-F nanoparticle was calculated as […].

EJ cells [2] = assay: Intracellular GSH content detection; assay type: cell-based
Description: (§1) Initially, EJ cells (5 × 10^5) were cultured in 6-well plate with a CO2 incubator overnight at 37 °C. […] Next, EJ cells were collected and washed with PBS for 3 times. Afterwards, the cell lysates were collected by centrifugation at 8000 g for 10 min at 4 °C after lysed by freeze-thaw treatment. Finally, the GSH contents were measured with a GSH Assay Kit based on the manufacturer’s instructions.

EJ cells [3] = assay: Intracellular LPO content (MDA kit); assay type: cell-based
Description: as §1, with “the LPO” for “the GSH”, “measured by thiobarbituric acid (TBA) reaction” for “measured”, “a Malondialdehyde (MDA)” for “a GSH”

GPX4 = molecular target: T1, GPX4 (Homo sapiens, UniProt P36969); assay: Intracellular GPX4 activity detection; assay type: cell-based; design: endogenous in cells; host or cells: EJ bladder cancer cells
T1 sequence (P36969 1-197): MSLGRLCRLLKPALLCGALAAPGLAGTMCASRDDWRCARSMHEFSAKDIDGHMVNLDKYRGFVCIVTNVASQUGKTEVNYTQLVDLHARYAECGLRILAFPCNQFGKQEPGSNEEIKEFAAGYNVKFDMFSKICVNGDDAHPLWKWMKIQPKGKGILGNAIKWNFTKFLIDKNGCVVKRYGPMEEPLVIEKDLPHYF
Description: as §1, with “5000 rpm” for “8000 g”, “ultrasonic lysis in an ice bath.” for “lysed by freeze-thaw treatment.”, “GPX4 activity” for “GSH contents”, “GPX” for “GSH”

Fnorm (‰), MST original data (GPX4 protein; nanoparticle ligand concentration 3.07265e-11 (μM)): 857.598 ‰ | Fnorm (‰), MST original data (GPX4 protein; nanoparticle ligand concentration 6.14531e-11 (μM)): 848.131 ‰ | Fnorm (‰), MST original data (GPX4 protein; nanoparticle ligand concentration 1.22906e-10 (μM)): 859.494 ‰ | Fnorm (‰), MST original data (GPX4 protein; nanoparticle ligand concentration 2.45812e-10 (μM)): 850.692 ‰ | Fnorm (‰), MST original data (GPX4 protein; nanoparticle ligand concentration 4.91623e-10 (μM)): 861.283 ‰ | Fnorm (‰), MST original data (GPX4 protein; nanoparticle ligand concentration 9.8325e-10 (μM)): 853.275 ‰ | Fnorm (‰), MST original data (GPX4 protein; nanoparticle ligand concentration 1.9665e-9 (μM)): 865.165 ‰ | Fnorm (‰), MST original data (GPX4 protein; nanoparticle ligand concentration 3.933e-9 (μM)): 860.627 ‰ | Fnorm (‰), MST original data (GPX4 protein; nanoparticle ligand concentration 7.86601e-9 (μM)): 880.817 ‰ | Fnorm (‰), MST original data (GPX4 protein; nanoparticle ligand concentration 1.5732e-8 (μM)): 885.875 ‰ | Fnorm (‰), MST original data (GPX4 protein; nanoparticle ligand concentration 3.1464e-8 (μM)): 915.502 ‰ | Fnorm (‰), MST original data (GPX4 protein; nanoparticle ligand concentration 6.29279e-8 (μM)): 920.264 ‰ | Fnorm (‰), MST original data (GPX4 protein; nanoparticle ligand concentration 1.25856e-7 (μM)): 943.293 ‰ | Fnorm (‰), MST original data (GPX4 protein; nanoparticle ligand concentration 2.51712e-7 (μM)): 935.723 ‰ | Fnorm (‰), MST original data (GPX4 protein; nanoparticle ligand concentration 5.03423e-7 (μM)): 956.979 ‰ | Fnorm (‰), MST original data (GPX4 protein; nanoparticle ligand concentration 1.00685e-6 (μM)): 946.244 ‰ | increase of binding affinity to GPX4 versus Gi-F-CAA (GPX4 protein; ratio of MST Kd values): ~ 55 times
Substance: FeTCPP-LKLKLKGACNWLPLYPCPV (disulfide) [Gi-F]
I338/I335 (pyrene) ([1]; conjugate 0.97656 μM): 0.9792 | I338/I335 (pyrene) ([1]; conjugate 1.95313 μM): 0.979 | I338/I335 (pyrene) ([1]; conjugate 3.90625 μM): 0.9785 | I338/I335 (pyrene) ([1]; conjugate 7.8125 μM): 0.9903 | I338/I335 (pyrene) ([1]; conjugate 15.625 μM): 1.011 | I338/I335 (pyrene) ([1]; conjugate 31.25 μM): 1.031 | I338/I335 (pyrene) ([1]; conjugate 62.5 μM): 1.099 | I338/I335 (pyrene) ([1]; conjugate 125 μM): 1.141 | I338/I335 (pyrene) ([1]; conjugate 250 μM): 1.203 | I338/I335 (pyrene) ([1]; conjugate 500 μM): 1.248 | I338/I335 (pyrene) ([1]; conjugate 1000 μM): 1.254 | critical aggregation concentration (CAC) ([1]; pyrene probe, I338/I335, PBS 0.01 M, pH 7.4): 13.8 µM | particle size (DLS) after incubation with GPX4 (Particle size by DLS): ~ 90 ± 9 nm

Substance: FeTCPP-LKLKLK(SA)GACNWLPLYPCPV (disulfide) [Gi-F-SA, control conjugate decorated with non-sensitive succinic anhydride (SA) moieties]
Relative GSH levels (EJ cells [2]; pH=7.4, replicate #1): 0.589 | Relative GSH levels (EJ cells [2]; pH=7.4, replicate #2): 0.628 | Relative GSH levels (EJ cells [2]; pH=7.4, replicate #3): 0.53 | Relative MDA levels (EJ cells [3]; pH=7.4, replicate #1): 2.76 | Relative MDA levels (EJ cells [3]; pH=7.4, replicate #2): 2.24 | Relative MDA levels (EJ cells [3]; pH=7.4, replicate #3): 2 | Relative activity of GPX4 (GPX4; EJ cells, 8 h, pH 7.4, PBS group normalized as 1, #1): 0.62 | Relative activity of GPX4 (GPX4; EJ cells, 8 h, pH 7.4, PBS group normalized as 1, #2): 0.59 | Relative activity of GPX4 (GPX4; EJ cells, 8 h, pH 7.4, PBS group normalized as 1, #3): 0.73 | Relative activity of GPX4 (GPX4; pH=7.4, replicate #1): 0.61 | Relative activity of GPX4 (GPX4; pH=7.4, replicate #2): 0.62 | Relative activity of GPX4 (GPX4; pH=7.4, replicate #3): 0.66
